Tests used:
barnyard grass = test: Herbicidal test for paddy field; type: in vivo, Eschinochloa crusgalli; settings: 500 g/ha, dropwise addition to paddy water at 1.5 leaf stage of barnyard grass; glass house 25° C., 3 weeks; rank 0-5 vs non-treated district; note: key: 0: normal development; 1: Less damaged; 2: Slightly damaged; 3: Moderately damaged; 4: Severely damaged; 5: All killed
How it was run: (§1)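 Wettable-powder formulations in water with 0.05% surfactant were dripped onto flooded (3 cm) Ube alluvial-soil pots at 500 g/ha, applied at barnyard grass 1.5-leaf stage. Plants were kept in a glasshouse at 25° C. for 3 weeks. Damage was scored 0 (normal) to 5 (all killed) versus untreated plants.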

bulrush = test: Herbicidal test for paddy field; type: in vivo, Scrips juncoides; settings: 500 g/ha, dropwise addition to paddy water at 1.5 leaf stage of barnyard grass; glass house 25° C., 3 weeks; rank 0-5 vs non-treated district; note: key: 0: normal development; 1: Less damaged; 2: Slightly damaged; 3: Moderately damaged; 4: Severely damaged; 5: All killed
How it was run: as §1

Cyperus serotinus Rottb. = test: Herbicidal test for paddy field; type: in vivo; settings: 500 g/ha, dropwise addition to paddy water at 1.5 leaf stage of barnyard grass; glass house 25° C., 3 weeks; rank 0-5 vs non-treated district; note: key: 0: normal development; 1: Less damaged; 2: Slightly damaged; 3: Moderately damaged; 4: Severely damaged; 5: All killed
How it was run: as §1

soybean = test: Soil treatment test for upland field; type: in vivo; design: key: 0 = normal development, 5 = all killed; settings: 500 g/ha, 3 weeks, glass house 25° C.
How it was run: (§2)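 Seeds were sown in alluvial soil in pots, and a wettable powder diluted in water with 0.05% surfactant was sprayed evenly on the soil surface at 500 g/ha. Plants were kept in a glass house at about 25° C for 3 weeks, then damage was scored 0–5 against untreated controls.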

[1] = test system: common Cocklebur (Xanthium strumarium); test: Soil treatment test for upland field; type: in vivo; settings: 500 g/ha, 3 weeks, glass house 25° C.
How it was run: as §2

cotton = test: Soil treatment test for upland field; type: in vivo; settings: 500 g/ha, 3 weeks, glass house 25° C.
How it was run: as §2

[2] = test system: sicklepod (Cassia obtusifolia); test: Soil treatment test for upland field; type: in vivo; settings: 500 g/ha, 3 weeks, glass house 25° C.
How it was run: as §2

Large crabgrass = test: Soil treatment test for upland field; type: in vivo, Digitaria adscendens; design: key: 0 = normal development, 5 = all killed; settings: 500 g/ha, 3 weeks, glass house 25° C.
How it was run: as §2

blackgrass = test: Soil treatment test for upland field; type: in vivo, Alopecurus aegualis; design: key: 0 = normal development, 5 = all killed; settings: 500 g/ha, 3 weeks, glass house 25° C.
How it was run: as §2

velvetleaf = test: Soil treatment test for upland field; type: in vivo, Abutilon theophrasti; design: key: 0 = normal development, 5 = all killed; settings: 500 g/ha, 3 weeks, glass house 25° C.
How it was run: as §2

barnyardgrjass = test: Foliar spread test for upland field; type: in vivo, Eschinochloa crusgalli; design: key: 0 = normal development, 5 = all killed (6 ranks vs. untreated); settings: foliar spray, 500 ppm, 3 weeks, glass house 25° C.
How it was run: (§3)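 Seeds were sown in volcanic ash soil in Wagner pots and grown about 2 weeks in a glass house at an average 25° C. Wettable-powder formulations diluted to 500 ppm in water with 0.5% surfactant were sprayed uniformly over the plants. After 3 further weeks at 25° C, damage was scored 0 (normal) to 5 (all killed) against untreated plants.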

green foxtail = test: Foliar spread test for upland field; type: in vivo, Setaria viridis; design: key: 0 = normal development, 5 = all killed (6 ranks vs. untreated); settings: foliar spray, 500 ppm, 3 weeks, glass house 25° C.
How it was run: as §3

annual bluegrass = test: Foliar spread test for upland field; type: in vivo, Poa annua; design: key: 0 = normal development, 5 = all killed (6 ranks vs. untreated); settings: foliar spray, 500 ppm, 3 weeks, glass house 25° C.
How it was run: as §3

young rice plant = test: Herbicidal test for paddy field; type: in vivo; settings: 500 g/ha, dropwise addition to paddy water at 1.5 leaf stage of barnyard grass; glass house 25° C., 3 weeks; rank 0-5 vs non-treated district; note: key: 0: normal development; 1: Less damaged; 2: Slightly damaged; 3: Moderately damaged; 4: Severely damaged; 5: All killed
Method: Then, the pots were filled with water to a depth of 3 cm. […] These plants were controlled in a glass house at an average temperature of 25° C. for 3 weeks, and then herbicidal effects thereof were investigated. The herbicidal effects are evaluated according to the following 6 ranks as compared with non-treated district. […] Incidentally, “-” in the column means not investigated.

Row | Structure (SMILES) | Effects Barnyardgrass (barnyard grass) | Effects Bulrush (bulrush) | Effects Cyperus serotinus Rottb. (Cyperus serotinus Rottb.) | Effects Soybean (soybean) | Effects Common Cocklebur [1] | Effects Sotton (cotton) | Effects Sicklepod [2] | Effects Large crabgrass (Large crabgrass) | Effects Blackgrass (blackgrass) | Effects Velvetleaf (velvetleaf) | Effects Barnyardgrass (barnyardgrjass) | Effects Green foxtail (green foxtail) | Effects Annual bluegrass (annual bluegrass) | Effects Young rice plant (young rice plant)
1 | Fc1ccc2nc(-c3cccc(Oc4ccc(F)c(C(F)(F)F)c4)n3)oc2c1 [I-a-7] | 1 | 0 | 0 | 2 | 0 | 0 | 3 | 5 | 4 | 0 | 1 | 3 | 3 | –
2 | FC(F)(F)c1cccc(Oc2cccc(-c3nc4cc(Cl)ccc4o3)n2)c1 [I-a-3, 6-(5-chlorobenzoxazol-2-yl)-2-(3-trifluoromethylphenoxy)pyridine] | 3 | 0 | 0 | 3 | 2 | – | 5 | 5 | 4 | 3 | 1 | 3 | 4 | 2
3 | Fc1ccc2nc(-c3cccc(Oc4cccc(C(F)(F)F)c4)n3)oc2c1 [I-a-6, 6-(6-fluorobenzoxazol-2-yl)-2-(3-trifluoromethylphenoxy)pyridine] | 4 | – | 2 | – | 0 | 1 | 1 | 5 | 5 | 2 | 5 | 5 | 5 | 3
